According to patent publication US12390483B2, “Compounds and methods for treating neurological and cardiovascular conditions” (Astrocyte Pharmaceuticals, Inc., priority 2016, dated 2025):
Where two headings read alike, the source gives them in different places.

Experiments:
[1] = Pharmacokinetics of MRS4322 following intraperitoneal administration of MRS2365 to mice; format: in vivo; conditions: for Plasma Concentration by Subject / Plasma Concentration Mean / Brain Concentration by Subject / Brain Concentration Mean: MRS4322 in mice after MRS2365 0.24 mg/kg i.p.; for Plasma Concentration by Subject / Brain Concentration by Subject: subjects A-C; for Plasma Concentration by Subject / Plasma Concentration Mean: BLQ = below 2.26 ng/mL; for Brain Concentration by Subject / Brain Concentration Mean: BLQ = below 9.40 ng/g
Procedure: Animals: Female C576BL/6J mice weighing approximately 0.02 Kg were used for this study, supplied by the University of Texas Health Sciences Center (San Antonio, TX). All studies were conducted under approved University of Texas Health Sciences Center IACUC protocols.
Drug Administration: MRS2365 was solubilized in phosphate-buffered saline and then diluted in phosphate-buffered saline to prepare dosing solution. Final dosing solution concentration of MRS2365 was 100 μM. A 100 μL volume of dosing solution was administered intraperitoneally to each mouse per 20 gram body weight; MRS2365 was administered intraperitoneally at 0.5 μmol/kg or 0.24 mg/kg. Three mice were administered MRS2365 for each sampling timepoint.
Tissue Sampling: Blood and brain samples were obtained at 0, 0.083, 0.25, 0.5, 1, 2 and 8 hours post-dose. At each timepoint, mice (3/timepoint) were euthanized in a […] chamber. Whole blood was obtained by cardiac puncture into Microtainer tubes containing heparin and immediately centrifuged for preparation of plasma; plasma was stored at −80° C. At each timepoint, whole brain samples were obtained by decapitation, rinsed in ice-cold phosphate-buffered saline and weighed. Brain samples were then immediately flash-frozen in liquid nitrogen and stored at −80° C.
(§1) The following table outlines the LC and MS/MS conditions employed:
The calibration range for the MRS4322 plasma concentration standard curve was 2.26-241 ng/mL. The calibration range for MRS4322 brain concentrations was 2.35-242 ng/mL.
For bioanalysis of brain concentrations of MRS4322, brain samples were homogenized in ice-cold phosphate-buffered saline in a 4× dilution. Aliquots of the resulting diluted brain homogenate were treated with acetonitrile and analyzed by LC-MS/MS. Because of the 4× homogenate dilution, the calibration range of the MRS4322 brain standard curve was translated to 9.40-968 ng/gm. In several samples, MRS4322 were detectable but fell below the brain LLOQ of 9.40 ng/gm but were above background; in these cases the final reported brain concentration was extrapolated based on MS peak heights.

[2] = Pharmacokinetics of MRS4322 following intravenous administration to neonatal pigs; format: in vivo; conditions: 0.2 mg/kg IV; for C0: 0.2 mg/kg, neonatal pig plasma, individual animals
Procedure: Animals. Four-week old female neonatal pigs weighing approximately 7.5 Kg were used for this study, supplied by the Department of Bioengineering, University of Pennsylvania (Philadelphia, PA). Animals were equipped with brain microdialysis probes to obtain brain extracellular fluid samples for drug concentration determinations during the study. All studies were conducted under approved University of Pennsylvania IACUC protocols.
Drug Administration: MRS4322 was solubilized in DMSO and then diluted in saline to prepare dosing solution. A 10 mL volume of dosing solution was administered by intravenous bolus administration to each neonatal pig (n=3).
Tissue Sampling: Blood samples were obtained at 0.25, 0.5, 1, 2, 4 and 6 hours post-dose. Brain extracellular fluid samples were obtained from implanted microdialysis probes at 1, 4 and 6 hours post-dose. Whole blood (1 mL) was obtained at each timepoint and placed in vacutainer tubes containing heparin and immediately centrifuged for preparation of plasma; plasma was stored at −80° C. Brain extracellular and cerebrospinal fluid samples were stored at −80° C. At the time of euthanasia (6 hours post-dose), cerebrospinal fluid samples were obtained and frozen, while brain samples from the cortex and hippocampus were obtained by decapitation, rinsed in ice-cold phosphate-buffered saline and weighed. Brain samples were then immediately flash-frozen in liquid nitrogen and stored at −80° C.
as §1
The calibration ranges for all of the MRS4322 matrice's standard curves were 0.1-1000 ng/mL.
For bioanalysis of brain concentrations of MRS4322, brain samples were homogenized in ice-cold phosphate-buffered saline in a 4× dilution. Aliquots of the resulting diluted brain homogenate were treated with acetonitrile and analyzed by LC-MS/MS.

[3] = In vitro stability and metabolite scouting of MRS2365 in human whole blood; format: in vitro ADME; conditions: 100 μM in human whole blood, lithium heparin as anti-coagulant
Procedure: Whole blood was obtained from male CD-1 mice and human volunteers at Seventh Wave Laboratories (Maryland Heights, MO). Plasma and blood samples were prepared using either EDTA (1 mM) or lithium heparin as anticoagulants.
Blood sample aliquots were obtained at 0, 1, 2.5, 7.5, 10 and 30 minutes and placed in microtainer tubes. For metabolite scouting analyses, MRS2365 was incubated in heparinized human whole blood at a concentration of 100 μM for 10 or 30 minutes (FIG. 10). In all studies, plasma was immediately prepared by centrifugation at 4° C., placed in microtainer tubes, frozen on dry ice and stored at −80° C. until analysis. […]
Plasma and blood samples were also qualitatively analyzed for MRS2365 metabolites utilizing a LC-MS/MS-based “metabolite scouting” protocol. […] Blood and plasma samples were analyzed by both positive- and negative-ion LC/MS-MS for parent compound and metabolites as it was anticipated that the phosphorylated compounds would preferentially generate negative ions while the riboside MRS4322 would preferentially generate positive ions. In positive-ion mode, extracted ion chromatograms monitored masses in the range of 323.7-324.7 and 403.7-404.7 to scout for MRS4322 and MRS2347, respectively. Any ion peaks in these ranges were further analyzed to generate product ion spectra for these ion chromatogram peaks. […]

[4] = Stability of MRS2365 incubated in phosphate-buffered saline; format: physicochemical
[5] = Previous in vivo pharmacokinetic assessments of MRS2365 in mice; conditions: heparin as blood anticoagulant for plasma preparation, initial assessments

SMILES: CSc1nc(N)c2ncn([C@H]3[C@H](O)[C@H](O)[C@]4(CO)C[C@H]34)c2n1 [MRS4322]
- Plasma Concentration by Subject ([1]; 0 h): BLQ
- Plasma Concentration Mean ([1]; 0 h): BLQ
- Brain Concentration by Subject ([1]; 0.083 h): BLQ
- Brain Concentration Mean ([1]; 0.083 h): BLQ
- Brain Concentration by Subject ([1]; 1 h): BLQ
- Brain Concentration Mean ([1]; 1 h): BLQ
- Brain Concentration by Subject ([1]; 2 h): BLQ
- Brain Concentration Mean ([1]; 2 h): BLQ
- Plasma Concentration by Subject ([1]; 8 h): BLQ
- Brain Concentration by Subject ([1]; 8 h): BLQ
- Plasma Concentration Mean ([1]; 8 h): BLQ
- Brain Concentration Mean ([1]; 8 h): BLQ
- C0 ([2]; female, pig, plasma, iv, read-out: C0): 266 ng/mL
- C0 [2]: 269 ng/mL
- Plasma Concentration by Subject ([2]; neonatal pigs, 0 h, individual subjects, BLQ = below 0.0975 ng/mL): BLQ
- Plasma Concentration Mean ([2]; neonatal pigs, 0 h, BLQ = below 0.0975 ng/mL): BLQ

SMILES: CSc1nc(N)c2ncn([C@H]3[C@H](O)[C@H](O)[C@]4(COP(=O)(O)OP(=O)(O)O)C[C@H]34)c2n1 [MRS2365]
- metabolic fate following intraperitoneal administration to mice ([1]; MRS2365 0.5 μmol/kg i.p., mice): rapidly and completely metabolized to MRS4322
- metabolites observed (M2 = MRS2347, M1 = MRS4322) [3]: Two metabolites
- stability in phosphate-buffered saline [4]: completely stable
- in vivo clearance [5]: rapidly cleared at a rate approximating cardiac output
